Assay results as given in the supplement of paper PMC10307832.

How the values were obtained:
Assay in all cases: relative viability (nuclei count vs DMSO), 5 days (fraction); higher = more cells survive
[1] = compound: COc1cc(N2CCC(N3CCN(C)CC3)CC2)ccc1Nc1ncc(Cl)c(Nc2ccccc2S(=O)(=O)C(C)C)n1 [NVP-TAE684] + CC(=O)Nc1cccc(-n2c(=O)n(C3CC3)c(=O)c3c(Nc4ccc(I)cc4F)n(C)c(=O)c(C)c32)c1 [Trametinib] (partner 0.02 µM)
Method in brief: (§1)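 Lung cancer cell lines, seeded in 1536-well plates, were treated the following day by pin tool with a single drug or with five library-drug doses (not always all listed) in √10 steps on top of a fixed anchor-drug dose. Cells were fixed and nuclei stained in one step after 5 days, and nuclei were counted. Relative viability is the nuclei count for treated wells divided by that for vehicle wells, reported as medians of duplicate plates.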

[2] = compound: COc1cc(N2CCC(N3CCN(C)CC3)CC2)ccc1Nc1ncc(Cl)c(Nc2ccccc2S(=O)(=O)C(C)C)n1 [NVP-TAE684] + O=C(CCCCCCC(=O)Nc1ccccc1)NO [Vorinostat] (partner 1 µM)
Method in brief: as §1

[3] = compound: C1=CC=C2C(=C1)N=C(S2)C(C#N)C3=NC(=NC=C3)NCCC4=CN=CC=C4 + CC(=O)Nc1cccc(-n2c(=O)n(C3CC3)c(=O)c3c(Nc4ccc(I)cc4F)n(C)c(=O)c(C)c32)c1 [Trametinib] (partner 0.02 µM)
Method in brief: as §1

[4] = compound: C#Cc1cccc(Nc2ncnc3cc(OC)c(OCCCCCCC(=O)NO)cc23)c1 [CUDC-101] + CC(=O)Nc1cccc(-n2c(=O)n(C3CC3)c(=O)c3c(Nc4ccc(I)cc4F)n(C)c(=O)c(C)c32)c1 [Trametinib] (partner 0.02 µM)
Method in brief: as §1

Cell Line | relative viability ([1]; first compound 0.2 µM) | relative viability ([1]; first compound 0.6325 µM) | relative viability ([1]; first compound 2 µM) | relative viability ([2]; first compound 0.2 µM) | relative viability ([2]; first compound 0.6325 µM) | relative viability ([2]; first compound 2 µM) | relative viability ([3]; first compound 0.005 µM) | relative viability ([3]; first compound 0.01581 µM) | relative viability ([3]; first compound 0.05 µM) | relative viability ([3]; first compound 0.1581 µM) | relative viability ([3]; first compound 0.5 µM) | relative viability ([4]; first compound 0.01 µM) | relative viability ([4]; first compound 0.03162 µM) | relative viability ([4]; first compound 0.1 µM) | relative viability ([4]; first compound 0.3162 µM) | relative viability ([4]; first compound 1 µM)
COR-L23 | 0.547 | 0.484 | 0.222 | 0.413 | 0.397 | 0.101 | 0.582 | 0.547 | 0.597 | 0.717 | 0.608 | 0.641 | 0.548 | 0.74 | 0.574 | 0.332
NCI-H1734 | 0.696 | 0.673 | 0.517 | 0.846 |  | 0.631 | 0.629 | 0.745 | 0.578 | 0.75 | 0.649 | 0.694 | 0.594 | 0.761 | 0.786 | 0.523
NCI-H2405 | 0.578 | 0.556 | 0.336 | 1.09 | 0.896 | 0.518 | 0.582 | 0.645 | 0.63 | 0.643 | 0.599 | 0.682 | 0.558 | 0.658 | 0.779 | 0.551
NCI-H2087 | 0.175 | 0.211 | 0.168 | 0.917 | 0.492 | 0.601 | 0.222 | 0.201 | 0.203 | 0.212 | 0.186 | 0.224 | 0.225 | 0.204 | 0.195 | 0.185
NCI-H1793 | 0.468 | 0.303 | 0.414 | 1.14 | 0.575 | 0.878 |  | 0.397 | 0.423 | 0.475 | 0.488 | 0.331 | 0.347 | 0.349 | 0.427 | 0.44
NCI-H2085 | 0.579 | 0.503 | 0.4 | 0.817 | 0.755 | 0.725 | 0.528 | 0.652 | 0.521 | 0.576 | 0.481 | 0.607 | 0.496 | 0.706 | 0.604 | 0.505
NCI-H358 | 0.147 | 0.107 | 0.0912 | 0.697 | 0.608 | 0.0861 | 0.125 | 0.132 | 0.113 | 0.139 | 0.15 | 0.142 | 0.135 | 0.119 | 0.143 | 0.115
NCI-H2023 | 0.462 | 0.498 | 0.155 | 0.646 | 0.634 | 0.102 | 0.602 | 0.532 | 0.547 | 0.538 | 0.489 | 0.615 | 0.542 | 0.578 | 0.551 | 0.428
SW 1573 | 0.651 | 0.495 | 0.21 | 0.745 | 0.636 | 0.346 | 0.615 | 0.587 | 0.479 | 0.718 | 0.499 | 0.638 | 0.5 | 0.599 | 0.592 | 0.392
SW 900 | 0.743 | 0.51 | 0.594 | 0.686 | 0.46 | 0.687 | 0.586 | 0.806 | 0.584 | 1.06 | 0.648 | 0.914 | 0.74 | 0.799 | 0.627 | 0.746
NCI-H3122 | 0.12 | 0.148 | 0.0944 | 0.273 | 0.229 | 0.103 | 0.178 | 0.238 | 0.221 | 0.216 | 0.197 | 0.201 | 0.224 | 0.198 | 0.243 | 0.228
NCI-H661 | 0.552 | 0.616 | 0.563 | 0.817 | 0.741 | 0.445 | 0.423 | 0.535 | 0.542 | 0.674 | 0.589 | 0.566 | 0.529 | 0.609 | 0.542 | 0.374
NCI-H441 | 0.359 | 0.333 | 0.263 | 0.972 | 0.688 | 0.56 | 0.444 | 0.409 | 0.432 | 0.49 | 0.307 | 0.639 | 0.439 | 0.371 | 0.65 | 0.41
NCI-H596 | 0.712 | 0.581 | 0.688 | 0.565 | 0.578 | 0.647 | 0.7 | 0.86 | 0.762 | 0.777 | 0.765 | 0.817 | 0.776 | 0.848 | 0.874 | 0.801
PC-3 [JPC-3] | 0.721 | 0.572 | 0.58 | 0.908 | 0.72 | 0.578 | 0.689 |  | 0.642 | 0.737 | 0.636 | 0.608 | 0.519 | 0.494 | 0.455 | 0.323
NCI-H1993 | 0.359 | 0.461 | 0.521 | 0.713 | 0.695 | 0.48 | 0.374 | 0.516 | 0.458 | 0.514 | 0.466 | 0.474 | 0.682 | 0.546 | 0.527 | 0.553
